Measurements taken from patent US20090099167A1, “Organic compounds” (Novartis Institutes for Biomedical Research, priority 2004, published 2009).

Tests used:
Cdk1/cycB = Cdk1/cycB (UniProt P06493); test: Cdk1/cycB kinase assay, histone H1 substrate; format: biochemical, starfish; conditions: Table 4; read-out: Cdk1, activity (IC50 for kinase inhibition)
Method: The inhibition of Cdk1 can be determined as follows: Cdk1/cycB: Cdk1/cycB are obtained from ProQinase, Freiburg, Germany. Starfish oocytes are induced to enter M phase of the cell cycle with 10 μM 1-methyladenine and frozen in liquid nitrogen and stored at −80° C. […] Briefly, the supernatant from oocytes is equilibrated for 30 min at 4° C. under constant rotation with the p9^CKShs-sepharose beads. The beads are extensively washed and active cdk1/cycB kinase is eluted with purified p9^CKShs (3 mg/ml). […] The assay is carried with slight modifications in 96-well plates at ambient temperature for 20 min. […] The reaction is terminated by addition of 25 μl 0.05 M EDTA pH 7.0. An aliquot of 40 μl is spotted with a multichannel dispenser on Immobilon P membranes mounted in a Millipore Microtiter filter manifold connected to a low vacuum source. After elimination of liquid, the membrane is transferred to a sequence of 4 washing baths containing 0.5% H3PO4 and one with EtOH (shaking incubation for 10 min each), dried, mounted onto a Hewlett Packard TopCount manifold added 10 μl Microscint® and counted. […] Cells were seeded at 2.5×10^7 cells per 150 mm dish and allowed to attach to a 150 mm dish for 1 hr at RT. Media (SF900II containing 10% FBS) is aspirated and recombinant baculovirus; GST-C-Raf-1, v-Ras and v-Src are added at MOI of 3.0, 2.5 and 2.5 receptively in a total volume of 4-5 mL. Cells are incubated for 1 hr at RT and then 15 mL of medium is added. Infected cells are incubated for 48-72 hr at 27° C. Infected Sf21 cells are scraped and collected into a 50 mL tube and centrifuged for 10 min at 4° C. at 1100 g in a Sorvall centrifuge. The cell pellet is washed once with ice cold PBS and lysed with 0.6 mL lysis buffer per 2.5×10^7 cells. Complete lysis of cells is achieved after 10 min on ice with occasional pipetting. […] GST-c-Raf-1 was allowed to bind to the beads at 4° C. for 1 hr with rocking. Bound GST-c-Raf-1 with beads was transferred to a column. The column is washed once with lysis buffer and twice with ice cold Tris buffered saline. Ice cold elution buffer is added and column flow is stopped to allow the free glutathione to disrupt the interaction of GST-c-Raf-1 with glutathione sepharose beads. Fractions (1 mL) are collected into pre-chilled tubes. Each tube contains 10% glycerol (final concentration) to maintain kinase activity during freeze thaw cycles. Purified fractions of GST-c-Raf-1 kinase protein are stored at −80° C.

[1] = molecular target: T1, human insulin receptor (Ins-R) (Homo sapiens, UniProt P06213); test: Ins-R tyrosine kinase assay, GST-Ins-R; format: biochemical; conditions: Table 4; read-out: Ins-R, activity (IC50 for kinase inhibition)
T1 construct: encoding the amino acid region 919-1343 of the intra-cytoplasmic kinase domain of the human insulin receptor; made in house; host or cells: baculovirus (Bac-to-Bac)
Source text: The inhibition of IGF-1R and Ins-R can be determined as follows: The baculovirus donor vector pfbgx3IGFIRcd is used to generate a recombinant baculovirus that expresses the amino acid region 950-1337 of the mature peptide cytoplasmic domain of the human IGF-IR. To generate the cDNA fragment encoding the amino acid region 919-1343 of the intra-cytoplasmic kinase domain of the human insulin receptor, pC5hInsR is used. The fragments of the human IGF-IR and Ins-R are cloned, expressed and small-scale purified as a factor Xa-cleavable glutathione-S-transferase (GST)-fusion protein using the Bac-to-Bac™ system (GIBCO BRL) of recombinant baculovirus generation. Virus containing media is collected from the transfected cell culture and used for infection to increase its titer. Virus containing media obtained after two rounds of infection is used for large-scale protein expression. Cell extracts are prepared and loaded onto a glutathione-Sepharose (Pharmacia) column. After washing, the GST-tagged proteins are then eluted with a glutathione-containing buffer. Purified protein is stored at −70° C. in elution buffer. Tyrosine protein kinase assays with purified GST-IGF-1R and GST-ins-R are carried in a final volume of 30 μl containing 20 mM Tris-HCl, pH 7.6, 10 mM MgCl2, 0.01 mM Na3VO4, 1% DMSO, 1 mM DTT, 3 μg/ml poly(Glu,Tyr) 4:1 and 10 μM ATP (γ-[^33P]-ATP 0.1 μCi). The assay is performed in 96-well plates at ambient temperature for 20 min and terminated by addition of 25 μl 0.05 M EDTA pH 7.0. An aliquot of 40 μl is spotted with a multichannel dispenser on Whatman P81 membranes mounted in a Millipore Microtiter filter manifold connected to a low vacuum source. After elimination of liquid, the membrane is transferred to a sequence of 4 washing baths containing 0.5% H3PO4 and one with EtOH (shaking incubation for 10 min each), dried, mounted onto a Hewlett Packard TopCount manifold added 10 μl Microscint® and counted. Compounds of formula (I) show up to 90% inhibition of Ins-R at 10,000 nM, preferably between 60-90% inhibition. The inhibition of Tek can be determined as follows: The procedure of the expression, purification and assay these kinases has been described. Fabbro et al., Pharmacol. Ther. 82(2-3) 293-301 (1999). In brief, the glutathione S-transferase (GST) gene from the pAcG1 vector (Pharmingen) is excised with EcoRV and EcoRI and inserted into the cloning site of the Fast-Bac baculoviral vector (GIBCO) creating a 5530 bp vector with N-terminal cloning sites derived from the pAcG1 fusion vector (FBG0). The C-terminal cloning site may be any cloning site (from the Fast-Bac vector) downstream of the N-terminal cloning site used. N-terminally GST-fused (pAcG1, Pharmingen) KDR, Flt-1, Flk-1, Tek and PDGFR-β kinase domains are obtained from ProQinase, Freiburg, Germany. Tek is recloned into the FBG1 vector by EcoRI excision and ligation into EcoRI digested FBG1 (FBG1-Tek). The coding sequences for the whole cytoplasmic domain of c-Kit (aa 544-976) and c-Fms (aa 538-972) are amplified by PCR from human uterus and from human bone marrow cDNA libraries (Clontech), respectively. The amplified DNA fragments are fused to GST by cloning them into FBG1 as BamHI-EcoRI insertions, to yield FBG1-c-Kit and FBG1-c-Fms. Tek is recloned into the FBG0 transfer vector by EcoRI excision and ligation into EcoRI digested FBG0 (FBG-Tie2/Tek). FGFR-1 and c-met kinase domains are obtained by PCR from human A431 cells. N-terminal primers contain an overhanging EcoRI site, while C-terminal primers contain a XhoI site to aid cloning into the transfer vectors. After digestion of both the PCR fragments and FBG0 the cleavage products are gel-purified and ligated together to form the kinase constructs (FBG-Met, FBG-FGFR-1).

human RET = molecular target: T2, human RET (Homo sapiens, UniProt P07949); test: RET kinase inhibition, GST-wtRET or GST-RET-Men2B, 33P incorporation into poly(Glu,Tyr); format: biochemical; conditions: Table 4
T2 construct: fused on or other part: N-terminal GST tag (pFB-GSTX3 vector)
Method: The inhibition of RET is measured as follows: The baculovirus donor vector pFB-GSTX3 is used to generate a recombinant baculovirus that expresses the amino acid region 658-1072 (Swiss prot No. Q9BTB0) of the intra-cytoplasmic kinase domain of human RET-Men2A which corresponds to the wild-type kinase domain of RET (wtRET) and RET-Men2B, which differs from the wtRET by the activating mutation in the activation loop M918T. The coding sequences for the cytoplasmic domain of wtRET and RET-Men2B are amplified by PCR from the plasmids pBABEpuro RET-Men2A and pBABEpuro RET-Men2B. The amplified DNA fragments and the pFB-GSTX3 vector are made compatible for ligation by digestion with SalI and KpnI. Ligation of these DNA fragments results in the baculovirus donor plasmid pFB-GX3-RET-Men2A and pFB-GX3-RET-Men2B, respectively. Production of virus: Transfer vectors containing the kinase domains are transfected into the DH10Bac cell line (GIBCO) and plated on selective agar plates. Colonies without insertion of the fusion sequence into the viral genome (carried by the bacteria) are blue. Single, white colonies are picked and viral DNA (bacmid) are isolated from the bacteria by standard plasmid purification procedures. Sf9 cells or Sf21 (American Type Culture Collection) cells are then transfected in 25 cm^2 flasks with the viral DNA using Cellfectin reagent. Determination of small scale protein expression in Sf9 cells: Virus-containing media is collected from the transfected cell culture and used for infection to increase its titer. Virus-containing media obtained after two rounds of infection is used for large-scale protein expression. For large-scale protein expression 100 cm^2 round tissue culture plates are seeded with 5×10^7 cells/plate and infected with 1 mL of virus-containing media (approximately 5 MOIs). After 3 days, the cells are scraped off the plate and centrifuged at 500 rpm for 5 minutes. Cell pellets from 10-20, 100 cm^2 plates, are re-suspended in 50 mL of ice-cold lysis buffer (25 mM tris-HCl, pH 7.5, 2 mM EDTA, 1% NP-40, 1 mM DTT, 1 mM P MSF). The cells are stirred on ice for 15 minutes and then centrifuged at 5,000 rpms for 20 minutes. Purification of GST-tagged proteins: The centrifuged cell lysate is loaded onto a 2 mL glutathione-sepharose column (Pharmacia) and is washed 3× with 10 mL of 25 mM tris-HCl, pH 7.5, 2 mM EDTA, 1 mM DTT, 200 mM NaCl. The GST-tagged proteins are then eluted by 10 applications (1 mL each) of 25 mM tris-HCl, pH 7.5, 10 mM reduced-glutathione, 100 mM NaCl, 1 mM DTT, 10% glycerol and stored at −70° C. Measure of enzyme activity: Tyrosine protein kinase assays with either purified GST-wtRET or GST-RET-Men2B protein are carried out in a final volume of 30 μL containing 15 ng of either GST-wtRET or GST-RET-Men2B protein, 20 mM tris-HCl, pH 7.5, 1 mM MnCl2, 10 mM MgCl2, 1 mM DTT, 3 μg/mL poly(Glu,Tyr) 4:1, 1% DMSO, 2.0 μM ATP (γ-[^33P]-ATP 0.1 μCi). The activity is assayed in the presence or absence of inhibitors, by measuring the incorporation of ^33P from [γ^33P] ATP into poly(Glu,Tyr) 4:1. The assay is carried out in 96-well plates at ambient temperature for 15 minutes under conditions described below and terminated by the addition of 20 μL of 125 mM EDTA. Subsequently, 40 μL of the reaction mixture are transferred onto Immobilon-PVDF membrane (Millipore) previously soaked for 5 minutes with methanol, rinsed with water, then soaked for 5 minutes with 0.5% H3PO4 and mounted on vacuum manifold with disconnected vacuum source. After spotting all samples, vacuum is connected and each well-rinsed with 200 μL 0.5% H3PO4. Membranes are removed and washed 4× on a shaker with 1.0% H3PO4, once with ethanol. Membranes are counted after drying at ambient temperature, mounting in Packard TopCount 96-well frame, and addition of 10 μL/well of Microscint™ (Packard). IC50 values are calculated by linear regression analysis of the percentage inhibition of each compound in duplicate, at 4 concentrations (usually 0.01, 0.1, 1 and 10 μM). […]

c-Abl kinase = molecular target: T3, c-Abl kinase (Homo sapiens, UniProt P00519); test: c-Abl protein-tyrosine kinase filter binding assay; format: biochemical
T3 construct: The His-tagged kinase domain of c-Abl is cloned and expressed in the baculovirus/Sf9 system; His; made in house; host or cells: Sf9 (baculovirus)
T3 sequence (P00519 242-493 limits assumed): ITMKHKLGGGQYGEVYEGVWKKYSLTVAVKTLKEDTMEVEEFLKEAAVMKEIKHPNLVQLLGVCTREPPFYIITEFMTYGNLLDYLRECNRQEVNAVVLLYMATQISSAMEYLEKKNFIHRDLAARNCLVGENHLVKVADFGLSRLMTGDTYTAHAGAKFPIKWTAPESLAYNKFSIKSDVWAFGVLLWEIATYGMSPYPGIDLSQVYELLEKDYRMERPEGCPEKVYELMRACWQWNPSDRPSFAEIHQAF
Method: The His-tagged kinase domain of c-Abl is cloned and expressed in the baculovirus/Sf9 system as described by Bhat et al. in J. Biol. Chem. 1997; 272:16170-16175. A protein of 37 kD (c-Abl kinase) is purified by a two-step procedure over a Cobalt metal chelate column followed by an anion exchange column with a yield of 1-2 mg/L of Sf9 cells (Bhat et al., reference cited). The purity of the c-Abl kinase is >90% as judged by SDS-PAGE after Coomassie blue staining. The assay contains (total volume of 30 μL): c-Abl kinase (50 ng), 20 mM Tris.HCl, pH 7.5, 10 mM MgCl2, 10 μM Na3VO4, 1 mM DTT and 0.06 μCi/assay [γ^33 P]-ATP (5 μM ATP) using 30 μg/mL poly-Ala,Glu,Lys,Tyr-6:2:5:1 (Poly-AEKY, Sigma P1152) in the presence of 1% DMSO. Reactions are terminated by adding 10 μL of 250 mM EDTA and 30 μL of the reaction mixture is transferred onto Immobilon-PVDF membrane (Millipore, Bedford, Mass., USA) previously soaked for 5 min with methanol, rinsed with water, then soaked for 5 min with 0.5% H3PO4 and mounted on vacuum manifold with disconnected vacuum source. After spotting all samples, vacuum is connected and each well rinsed with 200 μL 0.5% H3PO4. Membranes are removed and washed on a shaker with 0.5% H3PO4 (4 times) and once with ethanol. Membranes are counted after drying at ambient temperature, mounting in Packard TopCount 96-well frame, and addition of 10 μL/well of Microscint™ (Packard).

T2 sequence (P07949 1-1072 isoform P07949-2): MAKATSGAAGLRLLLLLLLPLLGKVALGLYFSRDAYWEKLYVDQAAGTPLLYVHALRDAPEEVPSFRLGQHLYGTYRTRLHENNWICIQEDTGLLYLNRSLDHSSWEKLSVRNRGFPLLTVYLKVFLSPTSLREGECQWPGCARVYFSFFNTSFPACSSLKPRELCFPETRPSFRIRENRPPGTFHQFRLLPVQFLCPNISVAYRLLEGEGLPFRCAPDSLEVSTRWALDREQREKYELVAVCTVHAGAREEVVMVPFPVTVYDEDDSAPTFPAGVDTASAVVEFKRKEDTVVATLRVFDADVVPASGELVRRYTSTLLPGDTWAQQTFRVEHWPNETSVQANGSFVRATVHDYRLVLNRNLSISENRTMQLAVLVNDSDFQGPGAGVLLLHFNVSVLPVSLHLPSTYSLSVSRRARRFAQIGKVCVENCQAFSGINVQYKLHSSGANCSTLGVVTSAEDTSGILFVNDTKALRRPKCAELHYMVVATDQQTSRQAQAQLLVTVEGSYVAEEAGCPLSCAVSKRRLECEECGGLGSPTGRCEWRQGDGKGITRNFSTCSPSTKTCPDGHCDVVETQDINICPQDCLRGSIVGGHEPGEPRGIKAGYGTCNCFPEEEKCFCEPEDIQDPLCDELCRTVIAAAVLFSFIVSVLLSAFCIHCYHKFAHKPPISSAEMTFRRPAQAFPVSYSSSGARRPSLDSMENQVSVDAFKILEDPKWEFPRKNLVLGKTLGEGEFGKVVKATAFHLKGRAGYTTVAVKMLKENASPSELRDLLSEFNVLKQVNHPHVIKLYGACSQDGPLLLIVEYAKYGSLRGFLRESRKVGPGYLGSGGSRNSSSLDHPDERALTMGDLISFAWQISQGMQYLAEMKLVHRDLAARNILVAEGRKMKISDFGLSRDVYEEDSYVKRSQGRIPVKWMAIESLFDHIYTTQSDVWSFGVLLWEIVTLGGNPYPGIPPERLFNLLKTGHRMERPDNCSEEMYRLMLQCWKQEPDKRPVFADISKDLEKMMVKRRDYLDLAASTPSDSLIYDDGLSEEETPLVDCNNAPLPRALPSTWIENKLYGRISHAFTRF
T1 sequence (P06213 958-1382 limits assumed): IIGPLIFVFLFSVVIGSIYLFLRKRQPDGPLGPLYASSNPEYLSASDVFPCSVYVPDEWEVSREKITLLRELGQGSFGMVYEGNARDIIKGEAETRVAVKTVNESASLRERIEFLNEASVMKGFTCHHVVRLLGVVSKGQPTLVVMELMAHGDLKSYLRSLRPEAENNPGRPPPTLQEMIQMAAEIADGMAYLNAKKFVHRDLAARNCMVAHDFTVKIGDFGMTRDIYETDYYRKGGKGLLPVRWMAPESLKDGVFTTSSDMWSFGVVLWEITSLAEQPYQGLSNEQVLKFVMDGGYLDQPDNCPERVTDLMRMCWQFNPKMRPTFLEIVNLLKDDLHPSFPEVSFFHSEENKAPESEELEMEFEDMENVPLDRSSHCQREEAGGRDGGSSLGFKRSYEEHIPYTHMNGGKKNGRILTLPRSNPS

Row | IC50 (Cdk1/cycB) | IC50 [1] | SMILES | IC50 (human RET) | IC50 (c-Abl kinase)
1 | < 10 µM | < 10 µM | Nc1cc(-c2ccccc2)nc2c(Br)cnn12 [Example 18, 3-Bromo-5-phenyl-pyrazolo[1,5-a]pyrimidin-7-ylamine] |  | 
2 |  |  | CN1CCN(c2ccc(-c3cnn4c(N)c(-c5ccc(O)cc5)cnc34)cc2)CC1 [Example 35, 4-{7-Amino-3-[4-(4-methyl-piperazin-1-yl)-phenyl]-pyrazolo[1,5-a]pyrimidin-6-yl}-phenol] | < 10 µM | < 10 µM
3 |  |  | Cc1nn2c(N)c(-c3cccc(O)c3)cnc2c1-c1ccc(N2CCN(C)CC2)cc1 [Example 61a, 3-{7-Amino-2-methyl-3-[4-(4-methyl-piperazin-1-yl)phenyl]-pyrazolo[1,5-a]pyrimidin-6-yl}-phenol] | < 10 µM | 
